The target in experiment [1] is T1, GST tagged LXRbeta LBD (ligand binding domain) (Homo sapiens, UniProt P55055).
T1 construct: purchased Invitrogen pv4658.pps
T1 sequence (P55055 222-460 limits assumed): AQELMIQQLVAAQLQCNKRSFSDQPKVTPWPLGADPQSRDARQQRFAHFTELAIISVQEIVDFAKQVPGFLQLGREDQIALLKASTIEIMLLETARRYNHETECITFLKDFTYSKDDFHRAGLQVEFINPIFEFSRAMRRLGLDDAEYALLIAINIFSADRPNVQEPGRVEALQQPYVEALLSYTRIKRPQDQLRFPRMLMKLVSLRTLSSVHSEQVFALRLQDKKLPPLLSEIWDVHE
Put plainly: LanthaScreen TR-FRET Liver X Receptor Coactivator Assay, LXR beta-LBD (co-activator recruitment; IP and % Emax relative to T0901317). Format: biochemical. The conditions noted are these: for EC50: Inflection Point of co-activator recruitment, LXR beta-LBD, TR-FRET; for Emax: efficacy at max dose in relation to reference T0901317, LXR beta-LBD, read-out: LXR beta actiivty at max dose (%). The method in brief: (§1)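 TR-FRET coactivator recruitment; LBD + cpd, then fluorescein coactivator peptide/Tb anti-GST Ab mix; RT incubation; IP and Emax vs T0901317.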
A general note: In TR-FRET formats the signal depends on donor and acceptor labels being close together.

The target in experiment [2] is T2, GST tagged LXRalpha LBD (ligand binding domain) (Homo sapiens, UniProt Q13133).
T2 construct: purchased Invitrogen pv4655
T2 sequence (Q13133 209-447 limits assumed): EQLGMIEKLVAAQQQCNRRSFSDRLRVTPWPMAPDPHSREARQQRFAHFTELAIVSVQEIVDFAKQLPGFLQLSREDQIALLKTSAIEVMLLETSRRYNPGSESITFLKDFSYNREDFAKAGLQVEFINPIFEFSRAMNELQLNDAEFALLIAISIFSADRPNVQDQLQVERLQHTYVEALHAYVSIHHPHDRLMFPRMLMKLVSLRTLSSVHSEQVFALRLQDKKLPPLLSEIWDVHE
Put plainly: LanthaScreen TR-FRET Liver X Receptor Coactivator Assay, LXR alpha-LBD (co-activator recruitment; IP and % Emax relative to T0901317). It is filed as biochemical. The conditions noted are these: for LXR alpha IP (nM) / EC50: Inflection Point of co-activator recruitment, LXR alpha-LBD, TR-FRET; for Emax: efficacy at max dose in relation to reference T0901317, LXR alpha-LBD, read-out: LXR alpha actiivty at max dose (%). An outline of the steps: as §1

On to `CN(C)C(=O)c1ccc(N2CCC(CCCN(C)C(=O)[C@]3(c4ccccc4)CCCO3)CC2)nc1Cl` [Example 1-10, (R)-2-chloro-N,N-dimethyl-6-(4-(3-(N-methyl-2-phenyl-tetrahydrofuran-2-carboxamido)propyl)piperidin-1-yl)nicotinamide], for which, in experiment [1], it took 72 nM to reach a half-maximal effect (EC50) and the Emax was found to be 71%. In experiment [2], the “LXR alpha IP (nM)” value is “No IP” and the Emax worked out at 9%.

Consider `CN(C)C(=O)c1ccc(N2CCC([C@@H]3C[C@H]3CN(C)C(=O)[C@](O)(c3ccccc3)C(F)(F)F)CC2)nc1Cl` [Example 15-15], for which, in experiment [1], the concentration for a half-maximal effect (EC50) (commonly the concentration that produces a half-maximal response) stood at 186 nM and the Emax is 75%. In addition, in experiment [2], the midpoint of the response, the EC50, lay at 6070 nM and the Emax amounted to 23%.

Regarding `CN(C)C(=O)c1ccc(N2CCC(C[C@H]3C[C@H]3CN(C)C(=O)[C@](O)(c3ccccc3)C(F)(F)F)CC2)nc1Cl` [Example 18-1, 2-chloro-N,N-dimethyl-6-(4-(((1S,2R)-2-(((R)-3,3,3-trifluoro-2-hydroxy-N-methyl-2-phenylpropanamido)methyl)cyclopropyl)methyl)piperidin-1-yl)nicotinamide], in experiment [1], it took 131 nM to reach a half-maximal effect (EC50) and the Emax came out at 56%. Further, in experiment [2], the “LXR alpha IP (nM)” value is given as “No IP” and the Emax was found to be 12%.

Regarding `COc1cccc([C@@](O)(C(=O)N(C)CCCC2CCN(c3ccc(C(=O)N(C)C)c(Cl)n3)CC2)C(F)(F)F)c1` [Example 1-9, (R)-2-chloro-N,N-dimethyl-6-(4-(3-(3,3,3-trifluoro-2-hydroxy-2-(3-methoxyphenyl)-N-methylpropanamido)propyl)piperidin-1-yl)nicotinamide], in experiment [1], the response was half-maximal at 46 nM (EC50) and the Emax is 69%. In addition, in experiment [2], the “LXR alpha IP (nM)” value was “No IP” and the Emax stood at 4%.

For the compound `CN(C)C(=O)c1ccc(N2CCC(CCCNC(=O)C3(c4ccccc4)CCCC3)CC2)nc1Cl` [Example 5-15, 2-chloro-N,N-dimethyl-6-(4-(3-(1-phenylcyclopentane-carboxamido)propyl)piperidin-1-yl)nicotinamide], in experiment [1], the concentration for a half-maximal effect (EC50) worked out at 215 nM and the Emax was found to be 83%. In experiment [2], the EC50 came to 2730 nM and the Emax is 22%.

Take `CN(C)C(=O)c1ccc(N2CCC3(CC2)CC3CCN(C)C(=O)[C@](O)(c2ccccc2)C(F)(F)F)cc1Cl` (stereo partly drawn) [Example 7-2, 2-chloro-N,N-dimethyl-4-(1-(2-((R)-3,3,3-trifluoro-2-hydroxy-N-methyl-2-phenylpropanamido)ethyl)-6-azaspiro[2.5]octan-6-yl)benzamide]: in experiment [1], a half-maximal response (EC50) required 14 nM and the Emax came out at 73%. For the same compound, in experiment [2], the concentration giving a half-maximal response (EC50) is 534 nM and the Emax came to 44%.

As for `CC(C)[C@](O)(C(=O)N(C)CCCC1CCN(c2ccc(C(=O)N(C)C)c(Cl)n2)CC1)c1ccccc1` [Example 1-2, (R)-2-chloro-6-(4-(3-(2-hydroxy-N,3-dimethyl-2-phenylbutanamido)propyl)piperidin-1-yl)-N,N-dimethylnicotinamide], in experiment [1], the concentration for a half-maximal effect (EC50) worked out at 259 nM and the Emax was found to be 68%. Moreover, in experiment [2], the “LXR alpha IP (nM)” value is “No IP” and the Emax came to 16%.

Turning to `COc1cccc([C@@](O)(C(=O)NCCCC2CCN(c3ccc(C(=O)N(C)C)c(Cl)n3)CC2)C(F)(F)F)c1.O=C(O)C(F)(F)F` [Example 5-20, (R)-2-chloro-N,N-dimethyl-6-(4-(3-(3,3,3-trifluoro-2-hydroxy-2-(3-methoxyphenyl)propanamido)propyl)piperidin-1-yl)nicotinamide], in experiment [1], the EC50 was found to be 230 nM and the Emax turned out to be 69%. Also, in experiment [2], the “LXR alpha IP (nM)” value was “No IP” and the Emax turned out to be 17%.

`CC(C)N(C)C(=O)c1ccc(N2CCC3(CC2)C[C@@H]3CCN(C)C(=O)[C@](O)(c2ccccc2)C(F)(F)F)cc1Cl` [Example 7-13, 2-chloro-N-isopropyl-N-methyl-4-((R)-1-(2-((R)-3,3,3-trifluoro-2-hydroxy-N-methyl-2-phenylpropanamido)ethyl)-6-azaspiro[2.5]octan-6-yl)benzamide]: in experiment [1], a half-maximal response (EC50) required 14 nM and the Emax came out at 55%. Moreover, in experiment [2], the concentration for a half-maximal effect (EC50) came to 158 nM and the Emax came out at 32%.

On to `COc1cccc([C@@](O)(C(=O)N(C)C[C@@H]2C[C@@H]2C2CCN(c3ccc(C(=O)N(C)C)c(Cl)n3)CC2)C(F)(F)F)c1` [Example 15-3, 2-chloro-N,N-dimethyl-6-(4-((1R,2R)-2-(((R)-3,3,3-trifluoro-2-hydroxy-2-(3-methoxyphenyl)-N-methylpropanamido)methyl)cyclopropyl)piperidin-1-yl)nicotinamide], for which, in experiment [1], the EC50 was 17 nM and the Emax amounted to 58%. Also, in experiment [2], the “LXR alpha IP (nM)” value is listed as “No IP” and the Emax worked out at 10%.

With `COc1cccc([C@@](O)(C(=O)NC2(CCC3CCN(c4ccc(C(=O)N(C)C)c(Cl)n4)CC3)CC2)C(F)(F)F)c1` [Example 8-1, (R)-2-chloro-N,N-dimethyl-6-(4-(2-(1-(3,3,3-trifluoro-2-hydroxy-2-(3-methoxyphenyl)propanamido)cyclopropyl)ethyl)piperidin-1-yl)nicotinamide], in experiment [1], the midpoint of the response, the EC50, lay at 201 nM and the Emax came out at 82%. For the same compound, in experiment [2], the “LXR alpha IP (nM)” value is “No IP” and the Emax was 16%.

`CN(C)C(=O)c1ccc(N2CCC([C@H]3C[C@H]3CN(C)C(=O)[C@](O)(c3cccc(OC(F)(F)F)c3)C(F)(F)F)CC2)nc1Cl` [Example 15-4, 2-chloro-N,N-dimethyl-6-(4-((1R,2R)-2-(((R)-3,3,3-trifluoro-2-hydroxy-N-methyl-2-(3-(trifluoromethoxy)phenyl)propanamido)methyl)cyclopropyl)piperidin-1-yl)nicotinamide]: in experiment [1], a half-maximal response (EC50) required 23 nM and the Emax is 50%. Besides, in experiment [2], the EC50 worked out at 623 nM and the Emax stood at 15%.

As to `CN(C)C(=O)c1ccc(N2CCC(CCCN(C)C(=O)[C@@]3(c4cccc(Cl)c4)CCCO3)CC2)nc1Cl` [Example 1-63, (S)-2-chloro-6-(4-(3-(2-(3-chlorophenyl)-N-methyltetrahydrofuran-2-carboxamido)propyl)piperidin-1-y)-N,N-dimethylnicotinamide], in experiment [1], the EC50 came out at 368 nM and the Emax was determined as 40%. Also, in experiment [2], the “LXR alpha IP (nM)” value is reported as “No IP” and the Emax stood at 0%.

With `CN(C)C(=O)c1ccc(N2CCC(CCCN(C)C(=O)[C@]3(c4cccc(Cl)c4)CCCO3)CC2)nc1Cl` [Example 1-62, (R)-2-chloro-6-(4-(3-(2-(3-chlorophenyl)-N-methyltetrahydrofuran-2-carboxamido)propyl)piperidin-1-yl)-N,N-dimethylnicotinamide], in experiment [1], the midpoint of the response, the EC50, lay at 694 nM and the Emax was found to be 28%. In experiment [2], the “LXR alpha IP (nM)” value is given as “No IP” and the Emax is 0%.

On to `COc1cccc([C@@](O)(C(=O)N(C)C[C@@H]2C[C@@H]2CC2CCN(c3ccc(C(=O)N(C)C)c(Cl)n3)CC2)C(F)(F)F)c1` [Example 18-2, 2-chloro-N,N-dimethyl-6-(4-(((1S,2R)-2-(((R)-3,3,3-trifluoro-2-hydroxy-2-(3-methoxyphenyl)-N-methylpropanamido)methyl)cyclopropyl)methyl)piperidin-1-yl)nicotinamdie], for which, in experiment [1], the half-maximal effective concentration (EC50) was 124 nM and the Emax was found to be 44%. Besides, in experiment [2], the “LXR alpha IP (nM)” value is “No IP” and the Emax stood at 0%.
